Measured values reported in US20250313563A1, “GLYCOGEN SYNTHASE KINASE 3 INHIBITORS AND USES THEREOF” (The Broad Institute, Inc., priority 2022, published 2025).
Where two headings read alike, the source gives them in different places.

Legend:
[1] = molecular target: GSK3α (GST-full length GSK3α) (Homo sapiens (Human), UniProt P49840); experiment: GSK3α TR-FRET kinase assay; assay type: biochemical
Outline: (§1)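 IC50 came from the normalized 665/615 nm TR-FRET ratio plotted against log compound concentration. The Tb-labelled pSer641 antibody and streptavidin-d2 detected phosphorylation of biotinylated S645-primed glycogen synthase peptide (200 nM) by 1 nM full-length GST-kinase. ATP was 4 μM for α, 2 μM for β, or 1 mM.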

[2] = molecular target: GSK3b (GST-full length GSK3b) (Homo sapiens (Human), UniProt P49841); experiment: GSK3b TR-FRET kinase assay; assay type: biochemical
Outline: as §1

[3] = 1 nM GSK3α, 4 μM ATP, 30 minute preincubation, Table 16, read-out: GSK3-A TR-FRET BIOCHEMICAL (TR-FRET), IC50
[4] = 1 nM GSK3b, 2 μM ATP, 30 minute preincubation, Table 16, read-out: GSK3-B TR-FRET BIOCHEMICAL (TR-FRET), IC50
[5] = 1 nM GSK3α, 4 μM ATP, 30 minute preincubation, Table 16, read-out: GSK3-A TR-FRET BIOCHEMICAL (TR-FRET)
[6] = 1 nM GSK3b, 2 μM ATP, 30 minute preincubation, Table 16, read-out: GSK3-B TR-FRET BIOCHEMICAL (TR-FRET)
[7] = 1 nM GSK3α, 4 μM ATP, 30 minute preincubation, read-out: GSK3-A TR-FRET BIOCHEMICAL (TR-FRET), IC50
[8] = 1 nM GSK3b, 2 μM ATP, 30 minute preincubation, read-out: GSK3-B TR-FRET BIOCHEMICAL (TR-FRET), IC50
[9] = read-out: GSK3-A (TR-FRET 1 mM ATP), GMean, IC50, 1 mM ATP, geometric mean
[10] = read-out: GSK3-B (TR-FRET 1 mM ATP), GMean, IC50, 1 mM ATP, geometric mean

Sequence of GSK3α (GST-full length GSK3α) (P49840 whole entry): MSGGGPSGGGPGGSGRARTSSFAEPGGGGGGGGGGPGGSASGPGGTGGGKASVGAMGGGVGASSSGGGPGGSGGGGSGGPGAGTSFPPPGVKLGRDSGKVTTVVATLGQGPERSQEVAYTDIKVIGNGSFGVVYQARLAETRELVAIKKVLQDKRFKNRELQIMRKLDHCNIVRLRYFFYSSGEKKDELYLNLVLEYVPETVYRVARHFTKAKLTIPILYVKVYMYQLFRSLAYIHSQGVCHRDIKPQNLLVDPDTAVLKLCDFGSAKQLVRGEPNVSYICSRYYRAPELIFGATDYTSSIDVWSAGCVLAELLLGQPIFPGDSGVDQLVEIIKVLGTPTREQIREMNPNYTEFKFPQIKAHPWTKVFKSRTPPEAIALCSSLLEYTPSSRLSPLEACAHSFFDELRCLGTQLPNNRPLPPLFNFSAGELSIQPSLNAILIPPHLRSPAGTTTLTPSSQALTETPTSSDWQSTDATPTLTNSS
Sequence of GSK3b (GST-full length GSK3b) (P49841 whole entry): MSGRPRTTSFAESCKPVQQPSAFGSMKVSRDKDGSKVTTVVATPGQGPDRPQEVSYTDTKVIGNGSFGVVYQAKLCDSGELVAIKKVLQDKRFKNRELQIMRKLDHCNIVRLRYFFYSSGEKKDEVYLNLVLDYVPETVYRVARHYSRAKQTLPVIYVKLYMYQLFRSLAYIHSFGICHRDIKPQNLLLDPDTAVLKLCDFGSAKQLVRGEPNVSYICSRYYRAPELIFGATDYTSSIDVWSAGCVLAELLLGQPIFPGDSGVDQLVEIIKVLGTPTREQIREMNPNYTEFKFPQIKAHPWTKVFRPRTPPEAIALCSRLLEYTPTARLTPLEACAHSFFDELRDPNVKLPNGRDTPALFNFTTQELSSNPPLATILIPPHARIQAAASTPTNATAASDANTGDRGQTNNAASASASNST

`CCC1(c2cccc(N(C)C(=O)CCc3ccccc3)c2)C2=C(CC(C)(C)CC2=O)Nc2n[nH]cc21` (centres unmarked) [Compound 912066] was tested, and the IC50 [1, 3] was no more than 100 nM and the IC50 [2, 4] was 100 to 1000 nM.

`CCC1(c2cccc(N(C)C(=O)c3cnn(C)c3)c2)C2=C(CC(C)(C)CC2=O)Nc2n[nH]cc21` (centres unmarked) [Compound 912068] gave an IC50 [1, 3] of no more than 100 nM and an IC50 [2, 4] of 100 to 1000 nM.

`CCC1(c2cccc(N(C(C)=O)C3CCCC3)c2)C2=C(CC(C)(C)CC2=O)Nc2n[nH]cc21` (centres unmarked) [Compound 912069] was tested, and the IC50 [1, 3] was no more than 100 nM and the IC50 [2, 4] was no more than 100 nM.

Work on `CCC1(c2cccc(N(C)C(=O)Cc3ccccc3)c2)C2=C(CC(C)(C)CC2=O)Nc2n[nH]cc21` (centres unmarked) [Compound 912071] yielded an IC50 [1, 3] of no more than 100 nM and an IC50 [2, 4] of no more than 100 nM.

`Cc1[nH]nc2c1C1(CCOCC1)C1=C(CC(C)(C)C(F)C1=O)N2` (centres unmarked) [Compound 912072] was tested, and the IC50 [1, 5] was 100 to 1000 nM and the IC50 [2, 6] was 100 to 1000 nM.

`CC1(C)CC(=O)C2=C(C1)Nc1n[nH]cc1C21CN(CC(F)F)C1` [Compound 912073] was tested, and the IC50 [1, 5] was 100 to 1000 nM and the IC50 [2, 6] was 100 to 1000 nM.

`CC1(C)CC(=O)C2=C(C1)Nc1n[nH]cc1C21CN(CC(F)(F)F)C1` [Compound 912074] gave an IC50 [1, 5] of no more than 100 nM and an IC50 [2, 6] of 100 to 1000 nM.

`CC1(C)CC(=O)C2=C(C1)Nc1n[nH]cc1C21CNC1` [Compound 912075] gave an IC50 [1, 3] of 1000 to 5000 nM and an IC50 [2, 4] greater than 5000 nM.

With `CC1(C)CC(=O)C2=C(C1)Nc1n[nH]cc1C21CN(C2COC2)C1` [Compound 912076] the IC50 [1, 5] was 100 to 1000 nM and the IC50 [2, 6] was 1000 to 5000 nM.

`CC1(C)CC(=O)C2=C(C1)Nc1n[nH]cc1C21CN(c2ccncc2)C1` [Compound 912077] gave an IC50 [1, 3] greater than 5000 nM and an IC50 [2, 4] greater than 5000 nM.

`C[C@H]1CC(=O)C2=C(C1)Nc1n[nH]cc1C21CCOCC1` [Compound 912078] gave an IC50 [1, 3] of 100 to 1000 nM and an IC50 [2, 4] of 100 to 1000 nM.

In the case of `C[C@@H]1CC(=O)C2=C(C1)Nc1n[nH]cc1C21CCOCC1` [Compound 912079], the IC50 [1, 3] is reported as 100 to 1000 nM and the IC50 [2, 4] is reported as 100 to 1000 nM.

With `O=C1C2=C(Nc3n[nH]cc3C23CCOCC3)[C@H]2CC[C@@H]1C2` [Compound 912080] the IC50 [1, 5] was 100 to 1000 nM and the IC50 [2, 6] was 100 to 1000 nM.

For `O=C1C2=C(Nc3n[nH]cc3C23CCOCC3)[C@@H]2CC[C@H]1C2` [Compound 912081], the IC50 [1, 5] was 100 to 1000 nM and the IC50 [2, 6] was 1000 to 5000 nM.

With `CC1(C)CC(=O)C2=C(C1)Nc1n[nH]cc1C21CCC(c2ccccc2)CC1` (centres unmarked) [Compound 912084] the IC50 [1, 5] was no more than 100 nM and the IC50 [2, 6] was no more than 100 nM.

Compound `CCC1(c2cccc(C3CCOC(C)(C)C3)c2)C2=C(CC(C)(C)CC2=O)Nc2n[nH]cc21` (centres unmarked) [Compound 912088] has an IC50 [1, 3] of 100 to 1000 nM and an IC50 [2, 4] greater than 5000 nM.

Work on `CCC1(c2cccc(C3CCOC(C)(C)C3)c2)C2=C(CC(C)(C)CC2=O)Nc2n[nH]cc21` (centres unmarked) [Compound 912089] yielded an IC50 [1, 3] of 100 to 1000 nM and an IC50 [2, 4] of 100 to 1000 nM.

In the case of `CCC1(c2cccc(C3CCOC(C)(C)C3)c2)C2=C(CC(C)(C)CC2=O)Nc2n[nH]cc21` (centres unmarked) [Compound 912090], the IC50 [1, 3] is reported as 100 to 1000 nM and the IC50 [2, 4] is reported as greater than 5000 nM.

`CC[C@]1(c2cccc([C@@H]3CCOC(C)(C)C3)c2)C2=C(CC(C)(C)CC2=O)Nc2n[nH]cc21` [Compound 912091] showed an IC50 [1, 3] greater than 5000 nM and an IC50 [2, 4] greater than 5000 nM.

With `CC1(C)CC(=O)C2=C(C1)Nc1n[nH]cc1C21CCN(S(C)(=O)=O)C1` (centres unmarked) [Compound 912092] the IC50 [1, 5] was no more than 100 nM and the IC50 [2, 6] was no more than 100 nM.

For `CC1(C)CC(=O)C2=C(C1)Nc1n[nH]cc1C21COCCOC1` [Compound 912094], the IC50 [1, 3] was 1000 to 5000 nM and the IC50 [2, 4] was greater than 5000 nM.

`CC[C@@]1(c2cccc(C(F)(F)F)c2)C2=C(C[C@H](C)NC2=O)Nc2n[nH]cc21` [Compound 912097] showed an IC50 [1, 7] of 100 to 1000 nM and an IC50 [2, 8] greater than 5000 nM.

`CC[C@]1(c2cccc(C(F)(F)F)c2)C2=C(C[C@H](C)NC2=O)Nc2n[nH]cc21` [Compound 912099] was tested, and the IC50 [1, 7] was greater than 5000 nM and the IC50 [2, 8] was greater than 5000 nM.

Work on `CCC1(c2cccc(C(F)(F)F)c2)C2=C(Nc3n[nH]cc31)C(C)(C)NC2=O` (centres unmarked) [Compound 912104] yielded an IC50 [1, 5] of no more than 100 nM and an IC50 [2, 6] of 100 to 1000 nM.

`CC1(C)CC(=O)C2=C(C1)Nc1n[nH]cc1C21CCCCC1=O` (centres unmarked) [Compound 912105] showed an IC50 [1, 3] greater than 5000 nM and an IC50 [2, 4] greater than 5000 nM.

In the case of `CC1(C)CC(=O)C2=C(C1)Nc1n[nH]cc1[C@]21CCO[C@@H](C(C)(C)C)C1` [Compound 912106], the IC50 [1, 3] is reported as 100 to 1000 nM and the IC50 [2, 4] is reported as 1000 to 5000 nM.

Compound `CC1(C)CC(=O)C2=C(C1)Nc1n[nH]cc1[C@@]21CCO[C@H](C(C)(C)C)C1` [Compound 912107] has an IC50 [1, 3] greater than 5000 nM and an IC50 [2, 4] greater than 5000 nM.

`CC1(C)CC(=O)C2=C(C1)Nc1n[nH]cc1[C@]21CCO[C@H](C(C)(C)C)C1` [Compound 912112] was tested, and the IC50 [1, 5] was 100 to 1000 nM and the IC50 [2, 6] was 100 to 1000 nM.

For `CC1(C)CC(=O)C2=C(C1)Nc1n[nH]cc1[C@@]21CCO[C@@H](C(C)(C)C)C1` [Compound 912113], the IC50 [1, 3] was 1000 to 5000 nM and the IC50 [2, 4] was 1000 to 5000 nM.

`CC1(C)CC(=O)C2=C(C1)Nc1n[nH]cc1C21CC2(COC2)C1` [Compound 912168] showed an IC50 [1, 7] greater than 5000 nM and an IC50 [2, 8] greater than 5000 nM.

With `CCC1(c2cccc(S(=O)(=O)C(C)C)c2)C2=C(CC(C)(C)CC2=O)Nc2n[nH]cc21` (centres unmarked) [Compound 912169] the IC50 [1, 3] was no more than 100 nM and the IC50 [2, 4] was no more than 100 nM.

Work on `CC1(C)CC(=O)C2=C(C1)Nc1n[nH]cc1C21CS(=O)(=O)C1` [Compound 912170] yielded an IC50 [1, 3] of 1000 to 5000 nM and an IC50 [2, 4] greater than 5000 nM.

With `CCC1(c2cccc(S(=O)(=O)C3CC3)c2)C2=C(CC(C)(C)CC2=O)Nc2n[nH]cc21` (centres unmarked) [Compound 912171] the IC50 [1, 9] was no more than 100 nM and the IC50 [2, 10] was 100 to 1000 nM.

In the case of `COC[C@H]1C[C@]2(C1)C1=C(CC(C)(C)CC1=O)Nc1n[nH]cc12` [Compound 912173], the IC50 [1, 5] is reported as 100 to 1000 nM and the IC50 [2, 6] is reported as 100 to 1000 nM.

`CC[C@@]1(c2cccc(C(F)(F)F)c2)C2=C(CCN(CC(F)(F)F)C2=O)Nc2n[nH]cc21` [Compound 912205] showed an IC50 [1, 7] greater than 5000 nM and an IC50 [2, 8] greater than 5000 nM.

In the case of `CCC1(c2cccc(C(F)(F)F)c2)C2=C(CCN(CC(F)(F)F)C2=O)Nc2n[nH]cc21` (centres unmarked) [Compound 912206], the IC50 [1, 7] is reported as no more than 100 nM and the IC50 [2, 8] is reported as 100 to 1000 nM.

Compound `CC1(C)CC(=O)C2=C(C1)Nc1n[nH]cc1C21CCC2(CCC(=O)N2C(=O)OC(C)(C)C)CC1` (centres unmarked) [Compound 912217] has an IC50 [1, 7] of 1000 to 5000 nM and an IC50 [2, 8] greater than 5000 nM.

`CCC1(c2cccc(C(F)(F)F)c2)C2=C(CCNC2=O)Nc2n[nH]cc21` (centres unmarked) [Compound 912622] gave an IC50 [1, 7] of 100 to 1000 nM and an IC50 [2, 8] of 1000 to 5000 nM.

For `CC[C@]1(c2cccc(C(F)(F)F)c2)C2=C(CCNC2=O)Nc2n[nH]cc21` [Compound 912668], the IC50 [1, 7] was greater than 5000 nM and the IC50 [2, 8] was greater than 5000 nM.

With `CC1(C)CC(=O)C2=C(C1)Nc1n[nH]cc1C21COC2(CN(S(=O)(=O)c3ccccc3)C2)C1` (centres unmarked) [Compound 913002] the IC50 [1, 7] was 100 to 1000 nM and the IC50 [2, 8] was 1000 to 5000 nM.

`CC[C@@]1(c2cccc(C(F)(F)F)c2)C2=C(CC(C)(C)NC2=O)Nc2n[nH]cc21` [Compound 913004] gave an IC50 [1, 7] greater than 5000 nM and an IC50 [2, 8] greater than 5000 nM.

`CCC1(c2cccc(C(F)(F)F)c2)C2=C(CC(C)(C)NC2=O)Nc2n[nH]cc21` (centres unmarked) [Compound 913006, 4-ethyl-7,7-dimethyl-4-(3-(trifluoromethyl)phenyl)-2,4,6,7,8,9-hexahydro-5H-pyrazolo[3,4-b][1,6]naphthyridin-5-one] gave an IC50 [1, 7] of no more than 100 nM, an IC50 ([1]; GSK3-A (TR-FRET 1 mM ATP), GMean, IC50, 1 mM ATP, geometric mean) of 100 to 1000 nM and an IC50 [2, 8] of no more than 100 nM. It also gave an IC50 ([2]; GSK3-B (TR-FRET 1 mM ATP), GMean, IC50, 1 mM ATP, geometric mean) greater than 5000 nM.

`CCC1(c2cccc(-c3ccncc3F)c2)C2=C(CC(C)(C)CC2=O)Nc2n[nH]c(C)c21` (centres unmarked) [Compound 913017] was tested, and the IC50 [1, 3] was 100 to 1000 nM and the IC50 [2, 4] was 100 to 1000 nM.

Compound `CCC1(c2cccc(-c3ccnc(C)c3)c2)C2=C(CC(C)(C)CC2=O)Nc2n[nH]c(C)c21` (centres unmarked) [Compound 913018] has an IC50 [1, 3] of no more than 100 nM, an IC50 [1, 9] of 100 to 1000 nM and an IC50 [2, 4] of no more than 100 nM. For the same compound, the IC50 [2, 10] was 1000 to 5000 nM.
